In patent publication US4859663A, “Multiply substituted pyridine 1-oxide compounds which are useful in treating brain disorders” (Hoechst Aktiengesellschaft, priority 1985, dated 1989):
Where two headings read alike, the source gives them in different places.

Legend:
Acute toxicity (LD50) = settings: in vivo, mouse, mortality within 7 days
Excerpt: 2. Acute toxicity The standard method for the determination of the LD50 values or LD50 ranges via the mortality occurring in Naval Medical Research Institute mice within 7 days after a single intravenous (i.v.), intraperitoneal (i.p.) or oral (p.o.) administration was used.

anesthetized male rats = test: EEG hypoxia-tolerance test (antihypoxic / cerebroprotective action); format: in vivo, rat; settings: ip, read-out: % change in the EEG-RL (EEG hypoxia recovery latency period); for change in vivo at 25 mg/kg: 25 mg/kg i.p.
Experimental: The compounds according to the invention were tested for a cerebroprotective action towards damage caused by hypoxia by means of the EEG hypoxia-tolerance test (EEG: Electroencephalogram) comparing with the most important representatives of types of compounds which belong to the state of the art. In this method, anesthetized male rats with implanted EEG electrodes are subjected to progressive hypoxia by passing nitrogen into a chamber. […] The criterion used for assessment of an antihypoxic action is the EEG hypoxia recovery latency period (EEG-RL), which is defined as the time from the opening of the chamber after onset of EEG silence until the first signals appear again. […] The compounds according to the invention were administered intraperitoneally 15 minutes before the start of hypoxia. The group size was n =8.

[1] = tested on: naive mice of the male sex; test: Scopolamine-induced retrograde amnesia in the passive avoidance test; format: in vivo, mouse; settings: for minimal effective dose: read-out: minimal effective dose (MED) countering scopolamine
Experimental: (a) Effect on the scopolamine-induced retrograde amnesia in the passive avoidance test
The test arrangement comprises a light/dark box with an electrifiable mesh floor in the dark section. 90 minutes after administration of placebo and product, naive mice of the male sex are treated subcutaneously with scopolamine hydrobromide (3 mg/kg). The mice are placed in the light section of the box 5 minutes later. After transferring into the dark section they receive there an electric shock to the feet which produces an unpleasant sensation. 24 hours thereafter, each mouse is placed once in the light section of the test apparatus, and the residence time (max. 180 seconds) is measured. […] The significant action of a test substance is calculated, using a median test, by comparison with the control group. The minimal effective dose (MED) of a product is regarded as that which results in a significant action countering scopolamine.

rat = test: Gamma-butyrolactone test on the rat (EEG); format: in vivo
Excerpt: (b) Gamma-butyrolactone test on the rat
It is known from the literature (L.I. Wolfson et al., J. Neurochem. 29, 777 (1977)) that gamma-butyrolactone (GBL), inter alia, induces metabolic disturbances in the brain which can be followed by changes in the EEG. The compounds of the formula I are able to antagonize this action of GBL on the EEG.

[2] = rat, 50 mg/kg i.p., 15 minutes before hypoxia, n = 8, vs untreated control, shortening (negative) = protective
[3] = rat, 15 minutes before hypoxia, n = 8, vs untreated control, shortening (negative) = protective

SMILES | LD50 at 168 h (Acute toxicity (LD50); iv, single i.v. administration) [mg/kg] | change in vivo at 25 mg/kg (anesthetized male rats; [3]) [%] | other results
Cc1cc(N2CCCCC2)c(C#N)c(C)[n+]1[O-] [Example 14] | 100 to 200 |  | change in vivo at 50 mg/kg (anesthetized male rats; [2]): -44%
Cc1cc(N2CCCC2)c(C#N)c(C)[n+]1[O-] [Example 13] | 200 |  | change in vivo at 50 mg/kg (anesthetized male rats; [2]): -32%
Cc1cc(N2CCN(c3ccc(F)cc3)CC2)c([N+](=O)[O-])c(C)[n+]1[O-] [Example 26] | 200 | -27 | 
Cc1cc(N2CCCCCC2)c(C#N)c(C)[n+]1[O-] [Example 22] | 50 to 100 | -38 | 
Cc1cc(N2CCOCC2)c([N+](=O)[O-])c(C)[n+]1[O-] [Example 5, 2,6-Dimethyl-4-(4-morpholinyl)-3-nitropyridine 1-oxide] | > 200 | -16 | 
Cc1cc(N2CCCCC2)c([N+](=O)[O-])c(C)[n+]1[O-] [Example 28] | 100 to 200 | -12 | 
Cc1cc(N2CCCNCC2)c([N+](=O)[O-])c(C)[n+]1[O-] [Example 11] | 200 |  | change in vivo at 50 mg/kg (anesthetized male rats; Rattus norvegicus): -23%
Cc1cc(N2CCSCC2)c(C#N)c(C)n1 [3-Cyano-2,6-dimethyl-4-(4-thiomorpholinyl)pyridine, reference compound] |  |  | LD50 at 168 h (Acute toxicity (LD50); ip, single i.p. administration): 150 to 300 mg/kg
COC(=O)c1c(C)nc(C)c(C#N)c1-c1ccccc1[N+](=O)[O-] [Methyl 3-cyano-2,6-dimethyl-4-(2-nitrophenyl)pyridine-5-carboxylate, reference compound] | 50 to 100 |  | change in vivo at 50 mg/kg (anesthetized male rats; [2]): 16%
NC(=O)CN1CCCC1=O [piracetam, 2-oxo-1-pyrrolidineacetamide, reference compound] |  |  | minimal effective dose ([1]; Mus musculus, po): 100 mg/kg
Cc1cc(N2CCSCC2)c(C#N)c(C)[n+]1[O-].Cl [Example 1, 3-Cyano-2,6-dimethyl-4-(4-thiomorpholinyl)pyridine 1-oxide hydrochloride] | 135 | -50 | LD50 at 168 h (Acute toxicity (LD50); po, single p.o. administration): 1190 mg/kg; minimal effective dose ([1]; mouse, oral, 90 minutes before scopolamine 3 mg/kg s.c.): 25 mg/kg; effectiveness relative to piracetam (from MED) ([1]; mouse, oral, passive avoidance): four times as effective as piracetam; protective action against GBL-induced EEG changes (rat; 100 and 200 mg/kg i.p.): strong, dose-dependent protective action; protective action against GBL compared with piracetam (rat; i.p.): far exceeded that of the comparison product piracetam
c1ccc(Oc2cccnc2)cc1 [3-Phenoxypyridine, reference compound] |  | -14 | LD50 at 168 h (Acute toxicity (LD50); po, single p.o. administration): 400 to 630 mg/kg
